{"source": "the supplement of paper PMC10307832", "assay_in_all_cases": "relative viability (nuclei count vs DMSO), 5 days (fraction); higher = more cells survive", "key": {"[1]": {"compound": "CCOC(=O)CCNc1cc(N2CCc3ccccc3CC2)nc(-c2ccccn2)n1 [GSK-J4] + N=C(N)NC(=N)NCCc1ccccc1 [Phenformin] (partner 250 µM)", "summary_of_the_method": "(§1)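 Relative viability is defined as nuclei in treated wells over nuclei in vehicle wells. Duplicate plates were run and medians reported. Lung cancer cell lines in 1536-well plates were dosed by pin tool one day after seeding, with one drug or with a fixed anchor-drug dose plus five library-drug doses (not always all listed) in √10 steps, and nuclei were counted after 5 days.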"}, "[2]": {"compound": "CCOC(=O)CCNc1cc(N2CCc3ccccc3CC2)nc(-c2ccccn2)n1 [GSK-J4] + Nc1nc2[nH]cc(CCc3ccc(C(=O)N[C@@H](CCC(=O)O)C(=O)O)cc3)c2c(=O)[nH]1 [Pemetrexed] (partner 0.2 µM)", "summary_of_the_method": "as §1"}, "[3]": {"compound": "CN1CCC(CC1)OC2=CC(=C(C=C2)NC3=NC=C4C(=N3)N(C(=O)N4C)C5CCCC5)OC [AZ3146] + C[C@]1(O)C[C@@H](c2nc(-c3ccc4ccc(-c5ccccc5)nc4c3)c3c(N)nccn32)C1 [Linsitinib] (partner 1 µM)", "summary_of_the_method": "as §1"}, "[4]": {"compound": "CCOC(=O)CCNc1cc(N2CCc3ccccc3CC2)nc(-c2ccccn2)n1 [GSK-J4] + Nc1ncn([C@H]2C[C@H](O)[C@@H](CO)O2)c(=O)n1 [Decitabine] (partner 2 µM)", "summary_of_the_method": "as §1"}}, "data": [{"cell line": "UMC-11", "values": [{"measurement": "relative viability", "setting": "[1]; first compound 0.5 µM", "value": 0.276}, {"measurement": "relative viability", "setting": "[1]; first compound 5 µM", "value": 0.241}, {"measurement": "relative viability", "setting": "[1]; first compound 15.81 µM", "value": 0.306}, {"measurement": "relative viability", "setting": "[1]; first compound 50 µM", "value": 0.294}, {"measurement": "relative viability", "setting": "[2]; first compound 0.5 µM", "value": 0.759}, {"measurement": "relative viability", "setting": "[2]; first compound 1.581 µM", "value": 0.667}, {"measurement": "relative viability", "setting": "[2]; first compound 5 µM", "value": 0.736}, {"measurement": "relative viability", "setting": "[2]; first compound 15.81 µM", "value": 0.771}, {"measurement": "relative viability", "setting": "[2]; first compound 50 µM", "value": 0.649}, {"measurement": "relative viability", "setting": "[3]; first compound 0.08 µM", "value": 0.989}, {"measurement": "relative viability", "setting": "[3]; first compound 0.253 µM", "value": 1.05}, {"measurement": "relative viability", "setting": "[3]; first compound 0.8 µM", "value": 0.992}, {"measurement": "relative viability", "setting": "[3]; first compound 2.53 µM", "value": 0.922}, {"measurement": "relative viability", "setting": "[3]; first compound 8 µM", "value": 0.577}, {"measurement": "relative viability", "setting": "[4]; first compound 0.5 µM", "value": 0.93}, {"measurement": "relative viability", "setting": "[4]; first compound 1.581 µM", "value": 0.642}, {"measurement": "relative viability", "setting": "[4]; first compound 15.81 µM", "value": 0.582}, {"measurement": "relative viability", "setting": "[4]; first compound 50 µM", "value": 0.343}]}]}
